Earlier results in US11590090B2, “Acetaminophen formulation with protection against toxic effects of overdose” (Anzen Pharmaceuticals, LLC, priority 2019, dated 2023).

System: cytochrome P450 mixed-function oxygenase system
Conditions: upon ingestion

Fraction metabolized in the liver by cytochrome P450 to NAPQI: about 5%
SMILES: CC(=O)Nc1ccc(O)cc1 [acetaminophen]
